The source made the active and inactive calls. The rule behind the calls is not given here.
Tests used:
Echinochloa oryzicola [1] = experiment: Pre-emergence herbicidal activity against Echinochloa oryzicola at 10 g a.i/ha measured after 14 days; type: functional, organism-based
Lindernia procumbens [2] = experiment: Pre-emergence herbicidal activity against Lindernia procumbens at 33 g a.i/ha measured after 14 days; type: functional, organism-based
Lindernia procumbens [3] = experiment: Pre-emergence herbicidal activity against Lindernia procumbens at 10 g a.i/ha measured after 14 days; type: functional, organism-based
Lindernia procumbens [4] = experiment: Post-emergence herbicidal activity against Lindernia procumbens assessed as bleaching of stem/leaf parts; type: functional, organism-based; also: test concentration or dose not given here
[5] = system: Schoenoplectiella juncoides; experiment: Pre-emergence herbicidal activity against Schoenoplectiella juncoides assessed as bleaching of stem/leaf parts; type: functional, organism-based
Pontederia vaginalis [6] = experiment: Pre-emergence herbicidal activity against Monochoria vaginalis at 1 0 g a.i/ha measured after 14 days; type: functional, organism-based
Elatine triandra [7] = experiment: Post-emergence herbicidal activity against Elatine triandra assessed as bleaching of stem/leaf parts; type: functional, organism-based; also: test concentration or dose not given here
[8] = system: Schoenoplectiella juncoides; experiment: Pre-emergence herbicidal activity against Schoenoplectiella juncoides at 10 g a.i/ha measured after 14 days; type: functional, organism-based
Cyperus difformis [9] = experiment: Pre-emergence herbicidal activity against Cyperus difformis at 10 g a.i/ha measured after 14 days; type: functional, organism-based
Echinochloa oryzicola [10] = experiment: Post-emergence herbicidal activity against Echinochloa oryzicola assessed as bleaching of stem/leaf parts; type: functional, organism-based
Pontederia vaginalis [11] = experiment: Pre-emergence herbicidal activity against Monochoria vaginalis at 33 g a.i/ha measured after 14 days; type: functional, organism-based
[12] = system: Schoenoplectiella juncoides; experiment: Post-emergence herbicidal activity against Schoenoplectiella juncoides assessed as bleaching of stem/leaf parts; type: functional, organism-based; also: test concentration or dose not given here
Rotala indica [13] = experiment: Post-emergence herbicidal activity against Rotala indica assessed as bleaching of stem/leaf parts; type: functional, organism-based
Cyperus difformis [14] = experiment: Pre-emergence herbicidal activity against Cyperus difformis assessed as bleaching of stem/leaf parts; type: functional, organism-based
Oryza sativa [15] = experiment: Phytotoxicity against Oryza sativa cv. Koshihikari (rice) at 10 g a.i/ha measured after 14 days; type: organism-based; details: in vivo, 336 h
Elatine triandra [16] = experiment: Pre-emergence herbicidal activity against Elatine triandra at 33 g a.i/ha measured after 14 days; type: functional, organism-based
Rotala indica [17] = experiment: Pre-emergence herbicidal activity against Rotala indica assessed as bleaching of stem/leaf parts; type: functional, organism-based
Elatine triandra [18] = experiment: Pre-emergence herbicidal activity against Elatine triandra assessed as bleaching of stem/leaf parts; type: functional, organism-based
Ammannia multiflora [19] = experiment: Post-emergence herbicidal activity against Ammannia multiflora assessed as bleaching of stem/leaf parts; type: functional, organism-based
Echinochloa oryzicola [20] = experiment: Pre-emergence herbicidal activity against Echinochloa oryzicola at 33 g a.i/ha measured after 14 days; type: functional, organism-based
Ammannia multiflora [21] = experiment: Pre-emergence herbicidal activity against Ammannia multiflora at 10 g a.i/ha measured after 14 days; type: functional, organism-based
Elatine triandra [22] = experiment: Pre-emergence herbicidal activity against Elatine triandra at 10 g a.i/ha measured after 14 days; type: functional, organism-based
Rotala indica [23] = experiment: Pre-emergence herbicidal activity against Rotala indica at 10 g a.i/ha measured after 14 days; type: functional, organism-based
Lindernia procumbens [24] = experiment: Pre-emergence herbicidal activity against Lindernia procumbens assessed as bleaching of stem/leaf parts; type: functional, organism-based
Rotala indica [25] = experiment: Pre-emergence herbicidal activity against Rotala indica at 33 g a.i/ha measured after 14 days; type: functional, organism-based
[26] = system: Schoenoplectiella juncoides; experiment: Pre-emergence herbicidal activity against Schoenoplectiella juncoides at 33 g a.i/ha measured after 14 days; type: functional, organism-based
Oryza sativa [27] = experiment: Phytotoxicity against Oryza sativa cv. Koshihikari (rice) at 33 g a.i/ha measured after 14 days; type: organism-based; details: in vivo, 336 h
Ammannia multiflora [28] = experiment: Pre-emergence herbicidal activity against Ammannia multiflora at 33 g a.i/ha measured after 14 days; type: functional, organism-based
Pontederia vaginalis [29] = experiment: Pre-emergence herbicidal activity against Monochoria vaginalis assessed as bleaching of stem/leaf parts; type: functional, organism-based
Cyperus difformis [30] = experiment: Pre-emergence herbicidal activity against Cyperus difformis at 33 g a.i/ha measured after 14 days; type: functional, organism-based
Pontederia vaginalis [31] = experiment: Post-emergence herbicidal activity against Monochoria vaginalis assessed as bleaching of stem/leaf parts; type: functional, organism-based
Ammannia multiflora [32] = experiment: Pre-emergence herbicidal activity against Ammannia multiflora assessed as bleaching of stem/leaf parts; type: functional, organism-based
Cyperus difformis [33] = experiment: Post-emergence herbicidal activity against Cyperus difformis assessed as bleaching of stem/leaf parts; type: functional, organism-based; also: test concentration or dose not given here
Echinochloa oryzicola [34] = experiment: Pre-emergence herbicidal activity against Echinochloa oryzicola assessed as bleaching of stem/leaf parts; type: functional, organism-based
Ammannia multiflora [35] = experiment: Pre-emergence herbicidal activity against Ammannia multiflora at 500 g a.i/ha measured after 14 days; type: functional, organism-based
Oryza sativa [36] = experiment: Phytotoxicity against Oryza sativa cv. Koshihikari (rice) at 100 g a.i/ha measured after 14 days; type: organism-based; details: in vivo, 336 h
Oryza sativa [37] = experiment: Phytotoxicity against Oryza sativa cv. Koshihikari (rice) at 500 g a.i/ha measured after 14 days; type: organism-based; details: in vivo, 336 h
Lindernia procumbens [38] = experiment: Pre-emergence herbicidal activity against Lindernia procumbens at 500 g a.i/ha measured after 14 days; type: functional, organism-based
Cyperus difformis [39] = experiment: Pre-emergence herbicidal activity against Cyperus difformis at 100 g a.i/ha measured after 14 days; type: functional, organism-based
Elatine triandra [40] = experiment: Pre-emergence herbicidal activity against Elatine triandra at 500 g a.i/ha measured after 14 days; type: functional, organism-based
Echinochloa oryzicola [41] = experiment: Pre-emergence herbicidal activity against Echinochloa oryzicola at 100 g a.i/ha measured after 14 days; type: functional, organism-based
[42] = system: Schoenoplectiella juncoides; experiment: Pre-emergence herbicidal activity against Schoenoplectiella juncoides at 100 g a.i/ha measured after 14 days; type: functional, organism-based
Pontederia vaginalis [43] = experiment: Pre-emergence herbicidal activity against Monochoria vaginalis at 100 g a.i/ha measured after 14 days; type: functional, organism-based
Elatine triandra [44] = experiment: Pre-emergence herbicidal activity against Elatine triandra at 100 g a.i/ha measured after 14 days; type: functional, organism-based
[45] = system: Schoenoplectiella juncoides; experiment: Pre-emergence herbicidal activity against Schoenoplectiella juncoides at 500 g a.i/ha measured after 14 days; type: functional, organism-based
Ammannia multiflora [46] = experiment: Pre-emergence herbicidal activity against Ammannia multiflora at 100 g a.i/ha measured after 14 days; type: functional, organism-based
Pontederia vaginalis [47] = experiment: Pre-emergence herbicidal activity against Monochoria vaginalis at 500 g a.i/ha measured after 14 days; type: functional, organism-based
Rotala indica [48] = experiment: Pre-emergence herbicidal activity against Rotala indica at 100 g a.i/ha measured after 14 days; type: functional, organism-based
Cyperus difformis [49] = experiment: Pre-emergence herbicidal activity against Cyperus difformis at 500 g a.i/ha measured after 14 days; type: functional, organism-based
Lindernia procumbens [50] = experiment: Pre-emergence herbicidal activity against Lindernia procumbens at 100 g a.i/ha measured after 14 days; type: functional, organism-based
Echinochloa oryzicola [51] = experiment: Pre-emergence herbicidal activity against Echinochloa oryzicola at 500 g a.i/ha measured after 14 days; type: functional, organism-based
Rotala indica [52] = experiment: Pre-emergence herbicidal activity against Rotala indica at 500 g a.i/ha measured after 14 days; type: functional, organism-based

Cn1cc(C(=O)Nc2ccc(F)cc2F)c(Oc2cccc(C(F)(F)F)c2)n1
Activity (Echinochloa oryzicola [1]): inactive
Activity (Lindernia procumbens [2]): Active
Activity (Lindernia procumbens [3]): inactive
Activity (Lindernia procumbens [4]): Active
Activity [5]: Active
Activity (Pontederia vaginalis [6]): inactive
Activity (Elatine triandra [7]): Active
Activity [8]: inactive
Activity (Cyperus difformis [9]): inactive
Activity (Echinochloa oryzicola [10]): Active
Activity (Pontederia vaginalis [11]): Active
Activity [12]: Active
Activity (Rotala indica [13]): Active
Activity (Cyperus difformis [14]): Active
Activity (Oryza sativa [15]): Non-toxic
Activity (Elatine triandra [16]): Active
Activity (Rotala indica [17]): Active
Activity (Elatine triandra [18]): Active
Activity (Ammannia multiflora [19]): Active
Activity (Echinochloa oryzicola [20]): Active
Activity (Ammannia multiflora [21]): inactive
Activity (Elatine triandra [22]): inactive
Activity (Rotala indica [23]): inactive
Activity (Lindernia procumbens [24]): Active
Activity (Rotala indica [25]): Active
Activity [26]: Active
Activity (Oryza sativa [27]): Non-toxic
Activity (Ammannia multiflora [28]): Active
Activity (Pontederia vaginalis [29]): Active
Activity (Cyperus difformis [30]): Active
Activity (Pontederia vaginalis [31]): Active
Activity (Ammannia multiflora [32]): Active
Activity (Cyperus difformis [33]): Active
Activity (Echinochloa oryzicola [34]): Active

Cn1cc(C(=O)Nc2ccccc2)c(Oc2cccc(C(F)(F)F)c2)n1
Activity (Lindernia procumbens [2]): Active
Activity (Ammannia multiflora [35]): Active
Activity (Oryza sativa [36]): Non-toxic
Activity (Lindernia procumbens [4]): Active
Activity [5]: Active
Activity (Oryza sativa [37]): Toxic
Activity (Elatine triandra [7]): Active
Activity (Lindernia procumbens [38]): Active
Activity (Cyperus difformis [39]): Active
Activity (Echinochloa oryzicola [10]): Active
Activity (Pontederia vaginalis [11]): Active
Activity (Elatine triandra [40]): Active
Activity [12]: Active
Activity (Rotala indica [13]): Active
Activity (Cyperus difformis [14]): Active
Activity (Echinochloa oryzicola [41]): Active
Activity [42]: Active
Activity (Elatine triandra [16]): Active
Activity (Rotala indica [17]): Active
Activity (Elatine triandra [18]): Active
Activity (Pontederia vaginalis [43]): Active
Activity (Elatine triandra [44]): Active
Activity (Ammannia multiflora [19]): Active
Activity (Echinochloa oryzicola [20]): inactive
Activity [45]: Active
Activity (Ammannia multiflora [46]): Active
Activity (Pontederia vaginalis [47]): Active
Activity (Rotala indica [48]): Active
Activity (Cyperus difformis [49]): Active
Activity (Lindernia procumbens [50]): Active
Activity (Lindernia procumbens [24]): Active
Activity (Rotala indica [25]): Active
Activity [26]: inactive
Activity (Oryza sativa [27]): Non-toxic
Activity (Ammannia multiflora [28]): Active
Activity (Pontederia vaginalis [29]): Active
Activity (Cyperus difformis [30]): Active
Activity (Pontederia vaginalis [31]): Active
Activity (Ammannia multiflora [32]): Active
Activity (Echinochloa oryzicola [51]): Active
Activity (Rotala indica [52]): Active
Activity (Cyperus difformis [33]): Active
Activity (Echinochloa oryzicola [34]): Active

Cn1cc(C(=O)Nc2ccc(F)cc2F)c(Oc2ccc(Cl)c(C(F)(F)F)c2)n1
Activity (Echinochloa oryzicola [1]): inactive
Activity (Lindernia procumbens [2]): Active
Activity (Lindernia procumbens [3]): Active
Activity (Lindernia procumbens [4]): Active
Activity [5]: Active
Activity (Pontederia vaginalis [6]): Active
Activity (Elatine triandra [7]): Active
Activity [8]: Active
Activity (Cyperus difformis [9]): Active
Activity (Echinochloa oryzicola [10]): Active
Activity (Pontederia vaginalis [11]): Active
Activity [12]: Active
Activity (Rotala indica [13]): Active
Activity (Cyperus difformis [14]): Active
Activity (Oryza sativa [15]): Non-toxic
Activity (Elatine triandra [16]): Active
Activity (Rotala indica [17]): Active
Activity (Elatine triandra [18]): Active
Activity (Ammannia multiflora [19]): Active
Activity (Echinochloa oryzicola [20]): Active
Activity (Ammannia multiflora [21]): Active
Activity (Elatine triandra [22]): Active
Activity (Rotala indica [23]): Active
Activity (Lindernia procumbens [24]): Active
Activity (Rotala indica [25]): Active
Activity [26]: Active
Activity (Oryza sativa [27]): Non-toxic
Activity (Ammannia multiflora [28]): Active
Activity (Pontederia vaginalis [29]): Active
Activity (Cyperus difformis [30]): Active
Activity (Pontederia vaginalis [31]): Active
Activity (Ammannia multiflora [32]): Active
Activity (Cyperus difformis [33]): Active
Activity (Echinochloa oryzicola [34]): Active

CCn1cc(C(=O)Nc2ccc(F)cc2F)c(Oc2cccc(C(F)(F)F)c2)n1
Activity (Echinochloa oryzicola [1]): Active
Activity (Lindernia procumbens [2]): Active
Activity (Lindernia procumbens [3]): Active
Activity (Lindernia procumbens [4]): Active
Activity [5]: Active
Activity (Pontederia vaginalis [6]): Active
Activity (Elatine triandra [7]): Active
Activity [8]: inactive
Activity (Cyperus difformis [9]): Active
Activity (Echinochloa oryzicola [10]): Active
Activity (Pontederia vaginalis [11]): Active
Activity [12]: Active
Activity (Rotala indica [13]): Active
Activity (Cyperus difformis [14]): Active
Activity (Oryza sativa [15]): Non-toxic
Activity (Elatine triandra [16]): Active
Activity (Rotala indica [17]): Active
Activity (Elatine triandra [18]): Active
Activity (Ammannia multiflora [19]): Active
Activity (Echinochloa oryzicola [20]): Active
Activity (Ammannia multiflora [21]): Active
Activity (Elatine triandra [22]): Active
Activity (Rotala indica [23]): Active
Activity (Lindernia procumbens [24]): Active
Activity (Rotala indica [25]): Active
Activity [26]: Active
Activity (Oryza sativa [27]): Non-toxic
Activity (Ammannia multiflora [28]): Active
Activity (Pontederia vaginalis [29]): Active
Activity (Cyperus difformis [30]): Active
Activity (Pontederia vaginalis [31]): Active
Activity (Ammannia multiflora [32]): Active
Activity (Cyperus difformis [33]): Active
Activity (Echinochloa oryzicola [34]): Active
